IC50 data for 17 compounds are collected here from the Kinase Knowledgebase extract (Sharma et al. 2016).

The first experiment deals with CDK2 (UniProt P24941). Briefly: Enzyme Assay.
Conditions: not given
On to `C=CCONC(=O)c1nn(-c2ccc(S(=O)(=O)NCCC)cc2)c2c1ccc1[nH]ncc12`, for which the IC50 (as a rule, the concentration at which inhibition is half-maximal) amounted to 0.2 µM.

`CC(=O)c1nn(-c2ccc(C)cc2)c2c1C(C)(C)Cc1[nH]ncc1-2` had an IC50 of 0.087 µM.

Another experiment deals with CDK2 (human) (UniProt P24941). Briefly: Cell-Based Assay. Particulars: a2780.
For the compound `N#Cc1ccc(-n2nc(C(N)=O)c3c2-c2cn[nH]c2CC3)cc1`, the IC50 was more than 20 µM.

Take `NC(=O)c1nn(-c2ccc(-c3ncc[nH]3)cc2)c2c1ccc1[nH]ncc12`: the IC50 is more than 20 µM.

On to `NC(=O)c1nn(-c2ccc(OC(F)(F)F)cc2)c2c1CCc1[nH]ncc1-2`, for which the half-inhibitory concentration (IC50) is more than 20 µM.

Consider `CC(=O)c1nn(-c2ccc(C)cc2)c2c1CCc1[nH]ncc1-2`, for which the IC50 was more than 20 µM.

Take `COc1ccc(-n2nc(C(=O)O)c3ccc4[nH]ncc4c32)cc1`: the IC50 was more than 20 µM.

With `NC(=O)c1nn(Cc2ccccc2)c2c1ccc1[nH]ncc12`, the 50% inhibitory concentration (IC50) amounted to 2.98 µM.

In turn, `C=CCONC(=O)c1nn(-c2ccc(S(=O)(=O)NCCC)cc2)c2c1ccc1[nH]ncc12` yielded a 50% inhibitory concentration (IC50) of 8.7 µM.

For the compound `NC(=O)c1nn(-c2ccc(C(F)(F)F)cc2)c2c1CCc1[nH]ncc1-2`, the IC50 was more than 20 µM.

As to `CCCCNS(=O)(=O)c1ccc(-n2nc(C(=O)NC)c3c2-c2cn[nH]c2CC3)cc1`, the half-maximal inhibitory concentration (IC50) came to 10.2 µM.

With `CS(=O)(=O)c1ccc(-n2nc(C(N)=O)c3c2-c2cn[nH]c2CC3)cc1`, the half-inhibitory concentration (IC50) was more than 20 µM.

`CN1CCN(S(=O)(=O)c2ccc(-n3nc(C(N)=O)c4ccc5[nH]ncc5c43)cc2)CC1` showed an IC50 of more than 20 µM.

The compound `NC(=O)c1nn(-c2ccc(Cl)cc2)c2c1CCc1[nH]ncc1-2` returned an IC50 of more than 20 µM.

Compound `NC(=O)c1nn(-c2ccc(-c3ncc[nH]3)cc2)c2c1CCc1[nH]ncc1-2` showed an IC50 of more than 20 µM.

In turn, `CC(=O)c1nn(-c2ccc(C)cc2)c2c1C(C)(C)Cc1[nH]ncc1-2` had an IC50 of 1.65 µM.

`CNS(=O)(=O)c1ccc(-n2nc(C(N)=O)c3c2-c2cn[nH]c2CC3)cc1` yielded a 50% inhibitory concentration (IC50) of more than 20 µM.

With `CNS(=O)(=O)c1ccc(-n2nc(C(N)=O)c3ccc4[nH]ncc4c32)cc1`, the half-maximal inhibitory concentration (IC50) is more than 20 µM.

On to `CCCCNS(=O)(=O)c1ccc(-n2nc(C(=O)NC)c3ccc4[nH]ncc4c32)cc1`, for which the IC50 was found to be 2.9 µM.
